The subject of one test is L1-BRET construct. Description: BRET assay, L1-BRET construct transfected in HEK-293 cells. As to conditions: for effect on the BRET ratio of EGF-stimulated cells: src-family kinase inhibitors; for effect on the BRET ratio of EGF-stimulated cells / effect on the BRET ratio of the L1-BRET construct: n=5; for effect on the BRET ratio of the L1-BRET construct: HEK-293 cells; for effect on the decrease in BRET ratio following EGF stimulation: pre-treating cells, genistein 100 μM. The test is classed as cell-based, Human. For orientation: In BRET a luciferase serves as donor, and the signal depends on an acceptor being close.

The next test concerns KGGKY construct. Description: BRET assay, Src pathway reporter (KGGKY construct) in HEK-293 cells. The test is classed as cell-based, Human. The procedure: Using a target sequence derived from a tyrosine in the L1-CAM cytoplasmic tail, a reporter was generated encoding a 12 amino acid insert, including a terminal tyrosine ([…], SEQ ID NO: 13). […] However, the Src-family inhibitor PP1 causes an increase in the BRET efficiency at doses above 20 μM while a related inhibitor PP2 has no effect at similar doses (FIG. 9B, results are shown mean±standard deviation, *P<0.01). […] Fibroblasts derived from wild-type (+/+src) or Src-null (−/−src) mice were treated with FGF, which activates indirectly Src-family kinases.

The next test relates to PKA construct. The test is described as follows: BRET assay, PKA construct in HEK-293 cells. Particulars: kinase inhibitors. The format is cell-based, Human. The source says: A reporter was generated for PKA based on a target domain derived from fish connexin35 (Mitropoulou et al. (2003) J. Neurosci. Res. 72:147-157). The PKA insert target sequence ([…]) contains a carboxy-terminal serine phosphorylation target.

Test [1] concerns […], […], […] variant constructs. The test is classed as cell-based, Human.
The test system of test [2] is L1-BRET construct in ND7 cells. The test is described as follows: BRET assay, L1-BRET construct in ND7 cells. The format is cell-based. The source says:
(§1) To confirm that the effects of MEK inhibitors were due to the phosphorylation state of […] (SEQ ID NO: 1), the effect of PD98059 and U0126 was examined on the BRET ratio of the […] (SEQ ID NO: 3), […] (SEQ ID NO: 4), and […] (SEQ ID NO: 5) variant constructs. […] To determine whether components of the MAPK cascade are responsible for phosphorylating the FIGQY (SEQ ID NO: 12) sequence in other cell types, downstream of other RTKs, L1-BRET construct was transiently transfected into ND7 (neuroblastoma) and PC12 (pheochromocytoma) cells (Dunn et al. (1991) Brain Res. 545:80-86; Pang et al. (1995) J. Biol. Chem. 270:13585-13588).

Test [3] concerns L1-BRET construct in PC12 cells. The test is described as follows: BRET assay, L1-BRET construct in PC12 cells. The test is classed as cell-based, rat. As to conditions: pre-treated.
Excerpt: as §1

The test system of another test is endogenous L1-CAM. The test is described as follows: Anti-phosphotyrosine immunoblot of endogenous L1-CAM, NGF-stimulated ND7 cells. As to conditions: 100 μM. The format is cell-based. The protocol:
(§2) Near-confluent cultures of HEK-293 cells, stably transfected with either an acceptor-insert-donor construct, or CHIM construct (SEQ ID NO: 2); or ND7 cells were harvested with trypsin-EDTA and resuspended to a density of 6×10^5 cells/ml. Aliquots (5 ml) of cell suspensions were added to 100 mm cell culture dishes (Corning Incorporated Life Sciences, Acton, Mass.) and incubated for 12 hrs at 37° C. Stably transfected HEK-293 cells were treated with genistein for 4 hrs at 37° C; and ND7 cells were treated with 100 μM PD98059 for 1 h and with 100 ng/ml NGF for 15 min. […] The protein concentrations of the supernatants were determined by using the BCA (bicinchoninic acid) protein assay (Pierce Chemical Company, Rockford, Ill.). […] Immobilized protein A beads were washed and resuspended in Laemnuli buffer, analyzed by SDS-PAGE, and transferred to nitrocellulose membrane. […]
To determine whether the MAPK signaling cascade can modulate tyrosine phosphorylation of full-length L1-CAM, the effect of MEK inhibitors was examined on ND7 cells stimulated with NGF. Cell lysates were immunoprecipitated with an anti-L1-CAM Ab and subsequently analyzed by immunoblotting (FIG. 2F) with an anti-phosphotyrosine Ab to detect phosphorylated L1-CAM (upper blot). […]

For the next test, the system named is L1-SLADY BRET. Description: BRET assay, L1-SLADY BRET reporter in HEK-293 cells. The test is classed as cell-based, Human. The source says: Another MAP kinase pathway reporter was constructed and tested using the methods described above and is outlined in the L1-SLADY BRET Data shown in FIGS. 5A, 5B, and 5C. The results of these figures are consistent with the other MAP kinase pathway data showing that the BRET system can be used as a MAP kinase pathway reporter.

Test [4] concerns ankyrin B recruitment to the plasma membrane. Description: Ankyrin B recruitment to the plasma membrane (immunofluorescence), HEK-293 cells with L1-CAM and ankyrin-B GFP. The test is classed as cell-based, Human. The protocol: HEK-293 cells were transfected with cDNA encoding an amino-terminal myc-epitope tagged full-length wild-type neuronal adhesion protein L1-CAM and a carboxy-terminal GFP-tagged ankyrin B construct using lipofectamine reagents. […] For immunolocalization, cells were fixed for 10 min using 1% (w/v) paraformaldehyde in 60 mM Pipes, 25 mM Hepes, 10 mM EGTA, and 2 mM MgCl2. Staining was performed as described previously (Felsenfeld et al. (1999) Nat. Cell Biol. 1:200-6). Briefly, ankyrin B was detected by indirect immunofluorescence using a rabbit anti-GFP polyclonal Ab and a donkey anti-rabbit Ab conjugated to indodicarbocyanince Cy5. L1-CAM was detected by indirect immunofluorescence using a mouse anti-myc monoclonal Ab and a donkey anti-mouse Ab conjugated to indocarbocyanine Cy3. […] Images were analyzed using NIH ImageJ (National Institutes of Health, Bethesda, Md.). […] Signal maximum for ankyrin staining at the junction between cells was determined at the position of the maximal L1-CAM staining to ensure that membrane rather than juxtamembrane staining was quantified. Minima were determined from the regions of the line overlapping the cytoplasm of either of the two cells. Membrane localization index was determined using the equation index=max/(max-min) as described (Gil et al. (2003) J. Cell Biol. 162:719-30). […]

The subject of another test is myr-L1-BRET. The test is described as follows: BRET assay, myristoylated construct (myr-L1-BRET) in HEK-293 cells. The format is cell-based, Human. As to conditions: 20 μM U0126.
The next test has as its system MEK. The test is described as follows: In vitro kinase assay with purified MEK. The test is classed as biochemical. Particulars: for phosphorylation in the presence of purified MEK: substrate.
Test [5] has as its system cerebellar granular neurons. Description: Neurite outgrowth assay on Ng-CAM. The format is cell-based, mouse. Particulars: 10 μM U0126. The protocol: (§3) Neurite outgrowth experiments were performed as described (Gil et al. (2003) J. Cell Biol. 162:719-30) with slight modification. A 1 cm-diameter circle in a 35 mm petri dish (Becton Dickinson) was coated with poly-L-lysine (5 μg/ml in phosphate-buffered saline (PBS) from Speciality Media, Phillipsburg, N.J.) for 1 hr at room temperature. After several washes with PBS, the coated area was dried under the hood. Aliquots of 1 μl of neural-glial cell adhesion molecule (Ng-CAM, Gil et al. (2003) J. Cell Biol. 162:719-30) at 50 μg/ml or laminin at 30 μg/ml (Becton Dickinson) were spotted on the coated area. Dishes were incubated for 1 hr at room temperature, washed several times with PBS and then blocked with 1% (w/v) bovine serum albumin (BSA). Cerebellar cells were prepared from P2-P4 mouse and plated on the prepared dishes in BME/B27/glucose/glutamine/Pen-Strep media at a cell density of 3×10^5 cells/ml. Peptides and U0126 were diluted in DMSO (10 mg/ml for peptides, 13 mM for U0126) and further diluted in media (final concentration 10 μg/ml peptide; 10 μM U0126) which was added to the cultures when the cells were plated. Cultures were incubated for 2 days and fixed with 4% paraformaldehyde.

Test [6] concerns cerebellar granular neurons. The test is described as follows: Neurite outgrowth assay on laminin. The test is classed as cell-based, mouse. As to conditions: 10 μM U0126. The protocol:
as §3

In a further test the test system is myr-FIGQH, myr-FIGQF. Particulars: 20 μM U0126; tyrosine mutated to histidine or phenylalanine.
The subject of another test is L1-BRET protein. The test is described as follows: Anti-phosphotyrosine immunoblot of L1-BRET protein, stably transfected HEK-293 cells. The test is classed as cell-based, Human. As to conditions: pretreated with genistein 100 μM. The procedure:
as §2
Immunoblot analysis was performed (FIG. 1G). Cell lysates were immunoprecipitated with an anti-GFP Ab and subsequently analyzed by immunoblotting with an anti-phosphotyrosine Ab to detect phosphorylated BRET constructs (upper blot). […] There was no phosphotyrosine detected in the CHIM construct (SEQ ID NO: 2) in the presence or absence of genistein, consistent with the idea that phosphorylation of the FIGQY (SEQ ID NO: 12) tyrosine is responsible for the changes observed in the spectrum of L1-BRET.

Consider 10 compounds from patent US20080227128A1, “Resonance Energy Transfer System and Method” (Mount Sinai School of Medicine of New York University, priority 2004, published 2008).

Like-named read-outs stand apart in the source and are kept apart here. *: point of attachment. Biotin = O=C1N[C@H]2[C@H](CS[C@H]2CCCCC(=O)*)N1

Protocol for myr-FIGQH, myr-FIGQF: (§4) Near-confluent cultures of HEK-293 cells were harvested with trypsin-EDTA (0.05% trypsin, 0.53 mM EDTA; Invitrogen Corporation, Carlsbad, Calif.) and resuspended to a density of 2.5×10^5 cells/ml. Aliquots (200 μl) of cell suspensions were added to white 96-well culture plates (CulturPlate™; PerkinElmer Life Sciences, Boston, Mass.) and incubated for 12 hrs at 37° C. HEK-293 cells were transfected with 0.1 μg of DNA/well using lipofectamine reagents (Lipofectamine Plus and Lipofectamine™; Invitrogen) according to the manufacturer's instructions. After incubation of plates for 48 hrs at 37° C., the cells were washed once with warm Dulbecco's Modified Eagle's Medium (D-MEM) without phenol red (Invitrogen) supplemented with 25 mM Hepes (Invitrogen). […] The plates were immediately counted using the Fusion Universal Microplate Analyzer (PerkinElmer Life Sciences).
(§5) Bioluminescence resulting from Rluc emission was counted at 410 nm using a 370-450 nm band pass filter and the fluorescence of GFP2 was counted at 515 nm using a 500-530 nm band pass filter. The efficiency of energy transfer between Rluc and GFP2 is determined by dividing acceptor emission intensity (GFP2) by donor emission intensity (Rluc). […]
Protocol for myr-L1-BRET: as §4, §5

Regarding `Cc1ccc(-c2nn(C(C)(C)C)c3ncnc(N)c23)cc1` [PP1], in the test on L1-BRET construct, the “effect on the BRET ratio of EGF-stimulated cells” value is “had no effect on the BRET ratio”. The “doses causing an increase in the BRET efficiency” value with KGGKY construct (dose response) is “above 20 μM”. For the same compound, in the test on PKA construct, the “effect on FRET efficiency of the PKA reporter” value is “had no effect on FRET efficiency”.

For `COc1cccc(-c2cc(=O)c3ccccc3o2)c1N` [PD98059], the “effect on the BRET ratio of the L1-BRET construct” value in the test on L1-BRET construct was “increased the BRET ratio of the L1-BRET construct in a dose-dependent manner”. For the same compound, in test [1], the “change in the BRET ratio of the variant constructs with MEK inhibitors” value is listed as “no change in the BRET ratio”. In addition, the “change in the BRET ratio of the L1-BRET construct in ND7 cells” value (“change in the BRET ratio … in ND7 cells” for short) in test [2] is listed as “increases in the BRET ratio”. Further, the “change in the BRET ratio of the L1-BRET construct in PC12 cells” value in test [3] is on record as “increases in the BRET ratio”. Besides, in the test with endogenous L1-CAM, the “level of tyrosine phosphorylation of endogenous L1-CAM” value is “marked decrease in the level of tyrosine phosphorylation”. Besides, the “effect on the decrease in BRET ratio (FIG. 5A, 5B)” value with L1-SLADY BRET was “reverses the decrease in BRET ratio”. Besides, in test [4] (100 μM PD98059 with 100 ng/ml EGF), the “effect on the EGF-induced decrease in ankyrin B recruitment” value is “reversed”. The “effect on this reporter” value with KGGKY construct (100 μM) is “no detectible effect”.

In the case of `O=c1c(-c2ccc(O)cc2)coc2cc(O)ccc12` [daidzein], the “effect on the decrease in BRET ratio following EGF stimulation” value in the test with L1-BRET construct is “had no effect”.

`N#CC(=C(/N)Sc1ccccc1N)/C(C#N)=C(\N)Sc1ccccc1N` [U0126]: the “effect on the BRET ratio of the L1-BRET construct” value in the test with L1-BRET construct is recorded as “increased the BRET ratio of the L1-BRET construct in a dose-dependent manner”. The “change in the BRET ratio of the variant constructs with MEK inhibitors” value in [1] (100 μM) is listed as “no change in the BRET ratio”. Further, in the test with myr-L1-BRET, the “change in BRET ratio of the myristoylated construct following inhibition of MEK” value is given as “increase in BRET ratio”. Also, in test [2], the “change in the BRET ratio … in ND7 cells” value is “increases in the BRET ratio”. In test [3], the “change in the BRET ratio of the L1-BRET construct in PC12 cells” value is given as “increases in the BRET ratio”. Further, the “effect on the increase in phosphorylation of MEKSBS and […] peptide” value in the test on MEK (purified MEK) is reported as “inhibited”. Moreover, the mean neurite length result in [5] is listed as “reduces mean neurite length”. In addition, in test [6], the “axon growth on laminin” value is listed as “inhibited”. Further, the “change in BRET ratio of mutated myristoylated constructs following inhibition of MEK” value in the test on myr-FIGQH, myr-FIGQF was “abolishes the increase in BRET ratio”.

On to Biotin-ADPDHDHTGFLTEYVATRW-OH [MEKSBS], for which, in the test with MEK, the “phosphorylation in the presence of purified MEK” value is “phosphorylated”.

Turning to “KPLGSDDSLADY [L1-derived peptide phosphorylated by purified MEK]”, the “phosphorylation in the presence of purified MEK” value with MEK was “phosphorylated”.

For `O=c1c(-c2ccc(O)cc2)coc2cc(O)cc(O)c12` [genistein], in the test with L1-BRET construct, the “effect on the decrease in BRET ratio following EGF stimulation” value is reported as “reversed”. Further, the “change in the BRET ratio … in ND7 cells” value in test [2] is recorded as “increase in the BRET ratio”. The “tyrosine phosphorylation of L1-BRET protein” value in the test on L1-BRET protein is “completely inhibited”. Further, in the test on L1-SLADY BRET, the “effect on the decrease in BRET ratio (FIG. 5A, 5B)” value was “reversing the decrease in BRET ratio”. Besides, the “effect on EGF-dependent decrease in BRET efficiency” value in the test on KGGKY construct (100 μM genistein, 100 ng/ml EGF) is “reversed”.

With `COC(=O)C=Cc1cc(O)ccc1O` [erbstatin analog, methyl 2,5-dihydroxycinnamate], in the test on L1-BRET construct, the “effect on the BRET ratio of the L1-BRET construct” value is reported as “increased the BRET ratio of the L1-BRET construct in a dose-dependent manner”.

With “EGF: Epidermal growth factor (EGF), obtained from Sigma-Aldrich”, the “level of ankyrin B recruited to the plasma membrane” value in [4] (100 ng/ml EGF) is on record as “decrease in the level of ankyrin B recruited to the plasma membrane”.

On to `CC(C)(C)n1nc(-c2ccc(Cl)cc2)c2c(N)ncnc21` [PP2], for which the “effect on the BRET ratio of EGF-stimulated cells” value with L1-BRET construct was “had no effect on the BRET ratio”. For the same compound, the “effect on BRET efficiency at similar doses” value in the test on KGGKY construct (doses similar to PP1 (above 20 μM)) is “has no effect”.
